Source: patent publication US20130178441A1, “Methods for Extending Progression-Free Survival using 10-Propargyl-10-Deazaaminopterin” (ALLOS THERAPEUTICS, INC., priority 2010, published 2013)
Where “and” joins values, the source holds several entries; their conditions need not be identical. Equal entries are not always repeated. Marks after values point to notes of the source that are not given here.

Legend:
Assay type in all cases: in vivo, human
[1] = tested on: relapsed/refractory PTCL; assay: PROPEL subset analysis: patients previously treated with ICE-based regimens (N=20) vs other patients (n=89)
From the text: (§1) The prognosis of aggressive PTCL is dismal. Investigators have developed salvage regimens attempting to improve outcomes for patients with relapsed or refractory disease. One such regimen frequently used is ifosfamide, carboplatin, and etoposide (ICE) or ICE-based regimens (eg, and rituximab-ICE [RICE] and dexamethasome-ICE [DICE]). These regimens can have response rates approaching 70% and patients may proceed to a stem cell transplant, yet most patients tend to relapse quickly (Horwitz et al Blood 2005; 106:a2679). Thus, optimal approaches for patients with relapsed or refractory disease are needed, and agents based on a unique mechanism of action warrant study. This analysis was conducted to determine if pralatrexate offered a beneficial treatment option for patients after treatment with an ICE/RICE/DICE regimen. Methods: Pralatrexate was administered via intravenous push over 3 to 5 minutes at 30 mg/m^2/week for six weeks in 7-week cycles with concurrent 1 mg vitamin B12 intramuscular every 8 to 10 weeks and folic acid 1.0 to 1.25 mg by mouth once daily. 109 patients were treated with pralatrexate in the PROPEL study. All patients in the PROPEL study had received at least 1 prior therapy for PTCL. A subset of 20 patients had received ICE, RICE or DICE at some point prior to treatment with pralatrexate. The efficacy in these patients was compared to the remainder of the patient population who had not received ICE/RICE/DICE as a therapy for PTCL prior to pralatrexate (n=89). The patient population that previously received an ICE-based regimen was heavily pretreated with am edian of 3 prior systemic regimens (range, 2-11). The median age was 45 years, a younger patient population compared with the overall PROPEL population (59 years).
ORR, duration of response, and progression-free survival (PFS) by independent central review and investigator assessment, and OS, are presented in Table 6. Details of the patients who responded to pralatrexate according to assessment by independent central review are provided in Table 7.

[2] = tested on: relapsed or refractory peripheral T-cell lymphoma (PTCL); assay: PROPEL (PDX-008) pivotal trial of pralatrexate, overall population (N=109)
From the text: Pralatrexate was approved under the provisions of accelerated approval is the United States for the treatment of patients with relapsed/refractory PTCL based on the results of the pivotal trial PROPEL (Pralatrexate in Patients with Relapsed Or Refractory Peripheral T-cell Lymphoma). The primary endpoint, objective response rate (ORR) by independent central review using International Workshop Criteria, was 29% (32/109), including 11% complete response/complete response unconfirmed (CR/CRu) with a median duration of response of 10.1 months. The ORR by investigator assessment was 39% (43/109), including 18% CR/CRu.
as §1
(§2) The pivotal PROPEL study of pralatrexate (FOLOTYN®) in patients with relapsed or refractory PTCL reported a rapid response to treatment in a heavily pretreated patient population. The majority of patients (63% of responders) responded by their first assessment at 7 weeks (the end of cycle 1). The present analysis assessed if there were any unique characteristics of patients who were unable to complete the first cycle of therapy and to assess the outcomes of patients who received ≧1 or ≧2 cycles of pralatrexate. Pralatrexate, a folate analog targeting dihydrofolate reductase, was approved in the United States for treatment of relapsed or refractory PTCL based on the PROPEL study. Methods: In PROPEL, patients received 30 mg/m^2 pralatrexate once weekly for 6 weeks in successive 7-week cycles. […] Cycle completion was determined receiving ≧1 dose in the following cycle. Thus, the subgroup of patients who completed ≧1 (n=64) includes those patients who only completed 1 cycle+the 43 who completed ≧2 cycles of treatment. […] However, the patients not completing cycle lwere more likely to have the angioimmunoblastic subtype (20% vs 6%). Patients in each subgroup received a median of 3 prior treatment regimens.

[3] = tested on: relapsed/refractory PTCL; assay: PROPEL analysis by treatment duration (<1, ≧1, ≧2 cycles of pralatrexate): efficacy; settings: for Median PFS by Central Review (months): Kaplan-Meier
Method: as §2

[4] = 20 patients with prior ICE/RICE/DICE
[5] = individual responders previously treated with ICE (N=8), central review, some values censored
[6] = of the 8 patients who did not respond to ICE as most recent therapy
[7] = prior ICE-based regimen, N=20, independent central review
[8] = prior ICE-based regimen, N=20, independent central review, Kaplan-Meier
[9] = prior ICE-based regimen, N=20, investigator assessment
[10] = prior ICE-based regimen, N=20, investigator assessment, Kaplan-Meier
[11] = Treatment Duration <1 cycle (n=45)
[12] = Treatment Duration ≧1 cycle (n=64)
[13] = Treatment Duration ≧2 cycles (n=43)

C#CCC(Cc1cnc2nc(N)nc(N)c2n1)c1ccc(C(=O)N[C@@H](CCC(=O)O)C(=O)O)cc1 (mixture of isomers) [Pralatrexate, (2S)-2-[[4-[(1RS)-1-[(2,4-diaminopteridin-6-yl)methyl]but-3-ynyl]benzoyl]amino]pentanedioic acid]
CR/CRu based on investigators assessment [1, 4]: 25% | Complete responses [CR] by independent central review [1, 4]: 15% | ORR based on investigators assessment [1, 4]: 40% | Overall response rate (ORR) by independent central review [1, 4]: 40% | Median PFS in the 20 patients relative to that of the other patients ([1]; central review): over 3 times | Duration of Response (months) [1, 5]: 17.1^b months and 13.1 months and 10.1 months and 3.4 months and 1.6 months | PFS (months) [1, 5]: 14.4 months and 17.8 months and 4.8 months and 3.0 months | Duration of Response (months) ([1]; individual responders previously treated with ICE (N=8), central review, some values censored, listed as pralatrexate): 1.3 months and 4.9 months | CR to pralatrexate [1, 6]: 2 patients | PR to pralatrexate [1, 6]: 1 patients | Patients who responded to pralatrexate [1, 6]: 3 patients | Patients who responded to pralatrexate ([1]; of the 15 patients who did not have a response to a prior ICE-based regimen): 40% | Patients who proceeded to a stem cell transplant upon attaining a response to pralatrexate ([1]; of the 20 patients with prior ICE/RICE/DICE): Two | CR/CRu based on investigators assessment ([1]; other 89 patients): 17% | CR/CRu by independent central review ([1]; other 89 patients): 10% | Median PFS according to central review ([1]; other 89 patients): 3.3 months | Median duration of response by central review ([1]; other 89 patients): 9.4 months | Median duration of response per investigator assessment ([1]; other 89 patients): 6.8 months | ORR based on investigators assessment ([1]; other 89 patients): 39% | ORR by independent central review ([1]; other 89 patients (no prior ICE/RICE/DICE)): 27% | OS, Median, months (95% CI) ([1]; prior ICE-based regimen, N=20, Kaplan-Meier): 12.0 (5.2, 23.4) months | Duration of response, Range [1, 7]: 1.3-22.1 months | Tumor response: CR [1, 7]: 3 (15) n (%) | Tumor response: ORR (CR + PR) [1, 7]: 8 (40) n (%) | Tumor response: PD [1, 7]: 4 (20) n (%) | Tumor response: PR [1, 7]: 5 (25) n (%) | Tumor response: SD [1, 7]: 2 (10) n (%) | Duration of response, Median, months (95% CI) [1, 8]: 13.1 months and 13.1 (3.4, NA) months | PFS, Median, months (95% CI) [1, 8]: 14.4 months and 14.4 (1.5, NA) months | Tumor response: CR [1, 9]: 5 (25) n (%) | Tumor response: NA (not assessable) [1, 9]: 1 (5) n (%) | Tumor response: ORR (CR + PR) [1, 9]: 8 (40) n (%) | Tumor response: PD [1, 9]: 6 (30) n (%) | Tumor response: PR [1, 9]: 3 (15) n (%) | Tumor response: SD [1, 9]: 5 (25) n (%) | Duration of response, Median, months (95% CI) [1, 10]: 16.2 months and 16.2 (3.4, NA) months | PFS, Median, months (95% CI) [1, 10]: 4.8 (2.5, 14.4) months | OS, Range ([1]; prior ICE-based regimen, N=20, survival follow up ended at two years): 1.1-24.0^d months | Responders who responded by their first assessment at 7 weeks (end of cycle 1) ([2]; % of responders): 63% | CR/CRu (complete response/complete response unconfirmed) by independent central review ([2]; all 109 patients): 11% | CR/CRu by investigator assessment ([2]; all 109 patients): 18% | Median duration of PFS by central review ([2]; all 109 patients): 3.5 months | Median duration of PFS by investigator assessment ([2]; all 109 patients): 4.0 months | Median duration of response by central review ([2]; all 109 patients): 10.1 months | Median duration of response by investigator assessment ([2]; all 109 patients): 8.1 months | ORR by investigator assessment ([2]; all 109 patients): 39% | Objective response rate (ORR) by independent central review using International Workshop Criteria ([2]; all 109 patients): 29% | Median OS (months) [3, 11]: 8.2 months | ORR by Central Review (CR + CRu + PR) [3, 11]: 7% | ORR by Investigator Assessment (CR + CRu + PR) [3, 11]: 7% | Median PFS by Central Review (months) [3, 11]: 1.3 months | Median Duration of Response by Central Review (months) [3, 12]: 10.1 months | Median OS (months) [3, 12]: 20.5 months | ORR by Central Review (CR + CRu + PR) [3, 12]: 45% | ORR by Investigator Assessment (CR + CRu + PR) [3, 12]: 63% | Median PFS by Central Review (months) [3, 12]: 4.9 months | Median Duration of Response by Central Review (months) [3, 13]: 13.1 months | Median OS (months) [3, 13]: 22.9 months | ORR by Central Review (CR + CRu + PR) [3, 13]: 54% | ORR by Investigator Assessment (CR + CRu + PR) [3, 13]: 70% | Median PFS by Central Review (months) [3, 13]: 8.1 months
